Measured values: patent publication US10392368B2, “Pyrazolo and triazolo bicyclic compounds as JAK kinase inhibitors” (THERAVANCE BIOPHARMA R&D IP, LLC, priority 2017, dated 2019)

What was measured:
JAK1 = molecular target: T1, JAK1 (Homo sapiens, UniProt P23458); assay: Biochemical JAK1 kinase assay (LanthaScreen)
T1 construct: GST; purchased Life Technologies
Method in brief: (§1)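 Recombinant GST-tagged JAK enzymes with GFP-STAT1 peptide substrate in 50 mM HEPES pH 7.5, 10 mM MgCl2, 1 mM EGTA, 0.01% Brij-35; compounds pre-incubated 1 h, then ATP added, 1 h reaction at ambient temperature. TR-FRET (Tb-anti-pSTAT1 pTyr701, 520/495 nm) after EDTA stop; IC50 by 4-parameter fit, converted to pKi via Cheng-Prusoff.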

JAK2 = molecular target: T2, JAK2 (Homo sapiens, UniProt O60674); assay: Biochemical JAK2 kinase assay (LanthaScreen)
T2 construct: GST; purchased Life Technologies
T2 sequence (O60674 whole entry): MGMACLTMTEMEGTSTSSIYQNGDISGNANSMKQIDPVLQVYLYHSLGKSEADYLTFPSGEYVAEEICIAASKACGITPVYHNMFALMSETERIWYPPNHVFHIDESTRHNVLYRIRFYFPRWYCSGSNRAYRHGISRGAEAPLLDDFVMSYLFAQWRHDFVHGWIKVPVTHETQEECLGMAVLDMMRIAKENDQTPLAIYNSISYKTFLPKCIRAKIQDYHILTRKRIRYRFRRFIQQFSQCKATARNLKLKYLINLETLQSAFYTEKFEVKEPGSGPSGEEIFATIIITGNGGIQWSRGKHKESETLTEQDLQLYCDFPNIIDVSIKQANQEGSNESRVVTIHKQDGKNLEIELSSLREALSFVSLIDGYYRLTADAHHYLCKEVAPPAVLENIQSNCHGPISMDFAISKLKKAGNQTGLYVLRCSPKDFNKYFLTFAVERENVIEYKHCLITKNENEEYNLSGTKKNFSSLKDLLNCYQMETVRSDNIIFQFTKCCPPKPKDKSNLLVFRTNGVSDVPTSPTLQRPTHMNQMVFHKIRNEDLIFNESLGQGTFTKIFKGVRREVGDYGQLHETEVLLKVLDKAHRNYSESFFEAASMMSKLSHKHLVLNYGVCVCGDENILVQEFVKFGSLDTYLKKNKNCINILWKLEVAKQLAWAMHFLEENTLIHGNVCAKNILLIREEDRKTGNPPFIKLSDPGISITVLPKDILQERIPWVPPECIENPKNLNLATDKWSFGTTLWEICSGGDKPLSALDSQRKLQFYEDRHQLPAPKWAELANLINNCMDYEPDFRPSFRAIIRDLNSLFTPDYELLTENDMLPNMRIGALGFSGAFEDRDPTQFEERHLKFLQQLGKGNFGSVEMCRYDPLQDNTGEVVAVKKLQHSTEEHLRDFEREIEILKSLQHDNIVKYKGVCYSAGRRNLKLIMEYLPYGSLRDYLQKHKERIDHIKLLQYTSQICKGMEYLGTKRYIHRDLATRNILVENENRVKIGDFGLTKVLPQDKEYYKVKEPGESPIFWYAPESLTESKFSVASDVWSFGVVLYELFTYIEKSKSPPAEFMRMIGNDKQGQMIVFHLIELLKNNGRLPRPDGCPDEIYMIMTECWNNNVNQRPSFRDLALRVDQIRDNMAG
Method in brief: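 pKi values derive from pIC50 via Cheng-Prusoff, with IC50 from a 4-parameter fit of percent-inhibition TR-FRET data using Tb-anti-pSTAT1 (pTyr701) detection. Compound, GST-JAK2 and GFP-STAT1 substrate were pre-incubated 1 h, then ATP started a 1 h ambient reaction (HEPES pH 7.5, 10 mM MgCl2, 1% DMSO).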

[1] = test system: IL-2 stimulated pSTAT5 in Tall-1 T cells; assay: Cellular JAK3 potency assay: inhibition of IL-2 stimulated pSTAT5 in Tall-1 T cells; assay type: cell-based, human; conditions: IL-2 stimulated pSTAT5, Tall-1 T cells
Method in brief: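 Inhibition of IL-2-induced pSTAT5 was quantified by AlphaLisa in Tall-1 cell lysates. Compound exposure lasted 1 h before 30 min stimulation with 300 ng/ml IL-2 final.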

Tyk2 = molecular target: T3, Tyk2 (Homo sapiens, UniProt P29597); assay: Biochemical Tyk2 kinase assay (LanthaScreen)
T3 construct: GST; purchased Life Technologies
T3 sequence (P29597 whole entry): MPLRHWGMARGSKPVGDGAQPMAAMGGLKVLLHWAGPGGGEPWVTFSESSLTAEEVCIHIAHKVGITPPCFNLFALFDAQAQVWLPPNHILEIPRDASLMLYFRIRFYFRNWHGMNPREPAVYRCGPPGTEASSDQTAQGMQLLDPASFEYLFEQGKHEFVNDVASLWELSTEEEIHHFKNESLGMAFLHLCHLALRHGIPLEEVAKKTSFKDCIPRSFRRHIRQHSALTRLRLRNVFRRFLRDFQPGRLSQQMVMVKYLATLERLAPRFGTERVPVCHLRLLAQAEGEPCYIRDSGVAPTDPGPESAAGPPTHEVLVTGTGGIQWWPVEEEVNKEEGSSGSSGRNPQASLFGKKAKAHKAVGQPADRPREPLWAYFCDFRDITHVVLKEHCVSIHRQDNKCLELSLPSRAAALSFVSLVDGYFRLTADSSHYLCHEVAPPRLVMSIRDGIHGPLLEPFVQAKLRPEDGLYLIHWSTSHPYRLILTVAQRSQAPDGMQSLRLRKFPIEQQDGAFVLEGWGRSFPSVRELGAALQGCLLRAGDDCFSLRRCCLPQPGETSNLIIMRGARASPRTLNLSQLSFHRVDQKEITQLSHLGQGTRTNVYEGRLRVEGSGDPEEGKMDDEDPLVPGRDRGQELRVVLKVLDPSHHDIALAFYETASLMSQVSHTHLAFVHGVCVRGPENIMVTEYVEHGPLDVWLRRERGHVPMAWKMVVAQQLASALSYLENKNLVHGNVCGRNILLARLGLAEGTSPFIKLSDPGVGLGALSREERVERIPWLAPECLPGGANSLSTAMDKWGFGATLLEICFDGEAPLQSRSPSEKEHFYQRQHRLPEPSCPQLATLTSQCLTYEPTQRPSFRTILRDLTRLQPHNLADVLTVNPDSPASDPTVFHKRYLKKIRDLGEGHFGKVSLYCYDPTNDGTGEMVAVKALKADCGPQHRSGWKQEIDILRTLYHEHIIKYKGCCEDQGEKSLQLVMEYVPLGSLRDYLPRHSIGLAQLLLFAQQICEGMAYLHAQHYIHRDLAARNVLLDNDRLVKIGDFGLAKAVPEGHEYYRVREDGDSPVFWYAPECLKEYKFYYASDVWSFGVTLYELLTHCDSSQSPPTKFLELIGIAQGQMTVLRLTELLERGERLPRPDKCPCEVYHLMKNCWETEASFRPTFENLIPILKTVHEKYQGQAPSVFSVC
Method in brief: as §1

JAK3 = molecular target: T4, JAK3 (Homo sapiens, UniProt P52333); assay: Biochemical JAK3 kinase assay (LanthaScreen); parameters: GST; purchased Life Technologies; conditions: for JAK3 (pKi)-JAK1 (pKi): selectivity JAK3 over JAK1, difference of pKi
T4 sequence (P52333 1-1124): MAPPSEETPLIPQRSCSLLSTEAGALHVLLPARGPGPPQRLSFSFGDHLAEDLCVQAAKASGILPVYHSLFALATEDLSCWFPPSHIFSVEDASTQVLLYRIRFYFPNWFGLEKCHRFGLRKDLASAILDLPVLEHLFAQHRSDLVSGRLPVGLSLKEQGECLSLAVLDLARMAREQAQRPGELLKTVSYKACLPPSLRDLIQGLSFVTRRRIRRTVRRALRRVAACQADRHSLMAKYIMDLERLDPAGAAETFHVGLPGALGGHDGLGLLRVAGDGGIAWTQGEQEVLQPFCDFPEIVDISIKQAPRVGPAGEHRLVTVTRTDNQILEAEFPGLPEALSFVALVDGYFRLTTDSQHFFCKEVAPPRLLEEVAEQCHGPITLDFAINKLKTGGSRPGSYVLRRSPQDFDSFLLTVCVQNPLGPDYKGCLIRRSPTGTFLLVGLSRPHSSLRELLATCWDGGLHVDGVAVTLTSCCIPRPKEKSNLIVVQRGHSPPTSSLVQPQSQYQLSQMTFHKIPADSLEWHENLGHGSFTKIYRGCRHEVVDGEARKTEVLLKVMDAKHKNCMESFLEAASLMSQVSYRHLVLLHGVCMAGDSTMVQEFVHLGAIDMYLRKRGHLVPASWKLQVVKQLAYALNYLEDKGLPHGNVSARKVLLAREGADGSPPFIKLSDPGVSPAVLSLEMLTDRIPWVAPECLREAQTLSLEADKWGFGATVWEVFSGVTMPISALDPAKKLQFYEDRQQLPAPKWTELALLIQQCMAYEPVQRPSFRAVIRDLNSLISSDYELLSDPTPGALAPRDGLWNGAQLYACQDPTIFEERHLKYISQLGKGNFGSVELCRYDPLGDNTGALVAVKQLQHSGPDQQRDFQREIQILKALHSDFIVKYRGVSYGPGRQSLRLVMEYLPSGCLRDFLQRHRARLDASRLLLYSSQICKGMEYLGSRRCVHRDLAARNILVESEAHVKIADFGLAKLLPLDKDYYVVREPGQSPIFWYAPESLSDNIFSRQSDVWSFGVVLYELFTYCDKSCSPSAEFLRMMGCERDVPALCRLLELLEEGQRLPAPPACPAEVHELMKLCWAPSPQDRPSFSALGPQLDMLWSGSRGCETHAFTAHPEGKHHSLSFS
Method in brief: as §1

T1 sequence (P23458 whole entry): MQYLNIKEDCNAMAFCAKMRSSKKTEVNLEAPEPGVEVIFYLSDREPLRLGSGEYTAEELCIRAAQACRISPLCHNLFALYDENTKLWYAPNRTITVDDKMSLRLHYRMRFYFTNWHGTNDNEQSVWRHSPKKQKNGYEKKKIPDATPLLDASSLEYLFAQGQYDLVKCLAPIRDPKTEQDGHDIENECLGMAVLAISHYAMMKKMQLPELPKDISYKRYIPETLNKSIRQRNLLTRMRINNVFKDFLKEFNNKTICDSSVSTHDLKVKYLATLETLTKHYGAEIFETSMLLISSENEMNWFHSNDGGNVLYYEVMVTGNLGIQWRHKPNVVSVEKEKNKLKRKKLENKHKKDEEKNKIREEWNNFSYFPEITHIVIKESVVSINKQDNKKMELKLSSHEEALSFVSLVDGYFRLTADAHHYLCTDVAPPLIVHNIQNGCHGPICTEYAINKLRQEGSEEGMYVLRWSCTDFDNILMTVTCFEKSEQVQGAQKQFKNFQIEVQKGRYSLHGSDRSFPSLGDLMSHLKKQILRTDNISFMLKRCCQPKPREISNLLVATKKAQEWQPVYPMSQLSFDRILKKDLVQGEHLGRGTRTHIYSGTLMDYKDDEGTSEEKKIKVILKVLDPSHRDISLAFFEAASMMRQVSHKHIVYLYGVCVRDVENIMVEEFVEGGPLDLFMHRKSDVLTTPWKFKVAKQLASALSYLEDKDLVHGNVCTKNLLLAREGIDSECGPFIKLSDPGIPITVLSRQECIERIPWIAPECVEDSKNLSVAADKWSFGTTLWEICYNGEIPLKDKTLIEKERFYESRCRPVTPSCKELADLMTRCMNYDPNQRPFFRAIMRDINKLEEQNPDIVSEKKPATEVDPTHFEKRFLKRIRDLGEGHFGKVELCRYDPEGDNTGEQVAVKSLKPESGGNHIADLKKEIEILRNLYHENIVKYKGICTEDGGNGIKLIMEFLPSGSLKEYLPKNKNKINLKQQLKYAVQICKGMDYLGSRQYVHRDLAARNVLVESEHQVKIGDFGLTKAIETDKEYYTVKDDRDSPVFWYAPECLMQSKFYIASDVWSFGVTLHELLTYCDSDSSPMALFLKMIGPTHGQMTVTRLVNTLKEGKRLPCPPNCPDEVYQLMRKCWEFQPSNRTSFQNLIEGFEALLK

C=CC(=O)N1CCC(Oc2cc(-c3ccc(O)cc3)nc3[nH]ncc23)CC1C (stereo not drawn) [Compound 13-13]
JAK 1 (pKi) (JAK1): E (a pKi value of 7 or below (Ki of 100 nM or above))
JAK 2 (pKi) (JAK2): E (a pKi value of 7 or below (Ki of 100 nM or above))
Tall-1 (pIC50) [1]: C (a pIC50 value between 6 and 6.7 (IC50 between 1 μM and 200 nM))
Tyk 2 (pKi) (Tyk2): E (a pKi value of 7 or below (Ki of 100 nM or above))
JAK 3 (pKi) (JAK3): B (a pKi value between 9 and 10 (Ki between 1 nM and 0.1 nM))
JAK3 (pKi)-JAK1 (pKi) (JAK3): A (a value of 3 or above)

C=CC(=O)N1CCC(C)(Oc2cc(-c3ccc(O)cc3Cl)cc3[nH]ncc23)C1 (stereo not drawn) [Compound 13-14]
JAK 1 (pKi) (JAK1): E (a pKi value of 7 or below (Ki of 100 nM or above))
JAK 2 (pKi) (JAK2): D (a pKi value between 7 and 8 (Ki between 100 nM and 10 nM))
Tall-1 (pIC50) [1]: A (a pIC50 value≥7.5 (IC50≤32 nM))
Tyk 2 (pKi) (Tyk2): E (a pKi value of 7 or below (Ki of 100 nM or above))
JAK 3 (pKi) (JAK3): A (a pKi value≥10 (Ki≤0.1 nM))
JAK3 (pKi)-JAK1 (pKi) (JAK3): A (a value of 3 or above)

C=CC(=O)N1CCC(C)(Oc2cc(-c3ccc(O)cc3)cc3[nH]ncc23)C1 (stereo not drawn) [Compound 13-15]
JAK 1 (pKi) (JAK1): E (a pKi value of 7 or below (Ki of 100 nM or above))
JAK 2 (pKi) (JAK2): D (a pKi value between 7 and 8 (Ki between 100 nM and 10 nM))
Tall-1 (pIC50) [1]: B (a pIC50 value between 6.7 (included) and 7.5 (IC50 between 200 nM and 32 nM))
Tyk 2 (pKi) (Tyk2): E (a pKi value of 7 or below (Ki of 100 nM or above))
JAK 3 (pKi) (JAK3): B (a pKi value between 9 and 10 (Ki between 1 nM and 0.1 nM))
JAK3 (pKi)-JAK1 (pKi) (JAK3): A (a value of 3 or above)

C=CC(=O)N1CC2(CCC2Oc2nc(-c3ccc(O)cc3)nc3[nH]ncc23)C1 (stereo not drawn) [Compound 13-16]
JAK 1 (pKi) (JAK1): E (a pKi value of 7 or below (Ki of 100 nM or above))
JAK 2 (pKi) (JAK2): E (a pKi value of 7 or below (Ki of 100 nM or above))
Tall-1 (pIC50) [1]: B (a pIC50 value between 6.7 (included) and 7.5 (IC50 between 200 nM and 32 nM))
Tyk 2 (pKi) (Tyk2): E (a pKi value of 7 or below (Ki of 100 nM or above))
JAK 3 (pKi) (JAK3): B (a pKi value between 9 and 10 (Ki between 1 nM and 0.1 nM))
JAK3 (pKi)-JAK1 (pKi) (JAK3): A (a value of 3 or above)

C=CC(=O)N1CCO[C@@H](C(=O)Nc2cc(-c3ccc(O)cc3)nc3[nH]ncc23)C1 [Compound 13-19]
JAK 1 (pKi) (JAK1): E (a pKi value of 7 or below (Ki of 100 nM or above))
JAK 2 (pKi) (JAK2): E (a pKi value of 7 or below (Ki of 100 nM or above))
Tall-1 (pIC50) [1]: B (a pIC50 value between 6.7 (included) and 7.5 (IC50 between 200 nM and 32 nM))
Tyk 2 (pKi) (Tyk2): E (a pKi value of 7 or below (Ki of 100 nM or above))
JAK 3 (pKi) (JAK3): A (a pKi value≥10 (Ki≤0.1 nM))
JAK3 (pKi)-JAK1 (pKi) (JAK3): A (a value of 3 or above)

C=CC(=O)N1CCO[C@@H](C(=O)Nc2nc(-c3ccc(O)c(Cl)c3)cc3[nH]ncc23)C1 [Compound 13-20]
JAK 1 (pKi) (JAK1): E (a pKi value of 7 or below (Ki of 100 nM or above))
JAK 2 (pKi) (JAK2): E (a pKi value of 7 or below (Ki of 100 nM or above))
Tall-1 (pIC50) [1]: B (a pIC50 value between 6.7 (included) and 7.5 (IC50 between 200 nM and 32 nM))
Tyk 2 (pKi) (Tyk2): E (a pKi value of 7 or below (Ki of 100 nM or above))
JAK 3 (pKi) (JAK3): B (a pKi value between 9 and 10 (Ki between 1 nM and 0.1 nM))
JAK3 (pKi)-JAK1 (pKi) (JAK3): B (a value of 2.3 to 3)

C=CC(=O)N1CCO[C@@H](C(=O)Nc2nc(-c3ccc(O)c(F)c3)cc3[nH]ncc23)C1 [Compound 13-21]
JAK 1 (pKi) (JAK1): E (a pKi value of 7 or below (Ki of 100 nM or above))
JAK 2 (pKi) (JAK2): D (a pKi value between 7 and 8 (Ki between 100 nM and 10 nM))
Tall-1 (pIC50) [1]: A (a pIC50 value≥7.5 (IC50≤32 nM))
Tyk 2 (pKi) (Tyk2): E (a pKi value of 7 or below (Ki of 100 nM or above))
JAK 3 (pKi) (JAK3): B (a pKi value between 9 and 10 (Ki between 1 nM and 0.1 nM))
JAK3 (pKi)-JAK1 (pKi) (JAK3): B (a value of 2.3 to 3)
